Where two headings read alike, the source gives them in different places.
Tests used:
Format in all cases: in vivo, NOD/SCID mice
[1] = molecular target: T1, proteasome Caspase-like (C-L) activity (Mus musculus, UniProt P70195+Q60692); assay: Pharmacodynamic proteasome activity in murine red blood cells, C-L; settings: iv, mice, 2 mg/kg i.v., time 0, read-out: Caspase-like (C-L) mean residual activity relative to vehicle treated controls
T1 construct: RBCs were lysed with assay lysis buffer and incubated on ice for 30 minutes; from tissue; host or cells: red blood cells of NOD/SCID mice
Description: (§1) Cells were harvested by centrifugation at 1,200 rpm at room temperature. Cell pellets were washed with PBS (phosphate buffered saline) and lysed with assay lysis buffer (50 mM HEPES (N-2-hydroxyethylpiperazine-N′-2-ethanesulfonic acid), pH 7.5; 150 mM NaCl; 1% Triton X-100; 2 mM ATP). Cell lysates were incubated on ice for 30 minutes, mixed by vortex every 5 minutes, and then centrifuged at 12,000 g for 10 minutes. The supernatant was transferred to a 96-well plate. For each assay, 10 μg of total protein were incubated for 1 hour at 37° C. with increasing concentrations (1 nM to 10 μM) of test compound diluted in assay buffer (50 mM tris-HCl (tris(hydroxymethyl)aminomethane-HCl), pH 7.5; 150 mM NaCl). DMSO alone was used as a control in every assay plate. After incubation, a specific fluorogenic proteasome substrate was added to each assay reaction at a final concentration of 40 μM in a total volume of 100 μL. N-Succinyl-Leu-Leu-Val-Tyr-7-amino-4-methylcoumarin (Suc-Leu-Leu-Val-Tyr-AMC) was used for measuring chymotrypsin-like (CT-L) activity, t-butoxycarbonyl-Leu-Arg-Arg-7-amino-4-methylcoumarin (Boc-Leu-Arg-Arg-AMC) for trypsin-like (T-L) activity, and benzyloxycarbonyl-L-leucyl-L-leucyl-L-glutamyl-7-amino-4-methylcoumarin (Z-Leu-Leu-Glu-AMC) for caspase-like (C-L) activity. The excitation wavelength was set at 360 nm and the fluorescence emission wavelength of AMC was detected at 460 nm. The fluorescence of free AMC released during the enzymatic reaction was measured with a SpectraMax M5 fluorescent spectrophotometric plate reader (Molecular Devices, Sunnyvale, Calif.). AMC release rate was measured at 37° C. in a kinetic mode, recording every 5 minutes for 30 minutes. Experiments were performed in triplicate and repeated at least twice.
(§2) All mouse experiments were performed in accordance with approval from the Ontario Cancer Institute institutional animal review board. Five- to six-week-old male non-obese diabetic/severe combined immunodeficient (NOD/SCID) mice were grouped randomly (n=3 mice per group). Mice were administered vehicle (5% DMSO, 20% Cremophor) or compounds of Formula I at different doses either intravenously or by oral gavage, and venous blood samples (20-50 μL) were collected from each mouse over 24 hours. Blood samples were mixed with heparin (APP Pharmaceuticals; Schaumburg, Ill.) in 0.5 mL tubes in accordance with the manufacturer's instructions. After centrifugal separation at 3,000 g for 10 minutes, red blood cells (RBCs) in the bottom layer were transferred into a new tube and stored at −70° C. until use. RBCs were lysed with assay lysis buffer and incubated on ice for 30 minutes, mixing by vortex every 5 minutes, and then centrifuged at 12,000 g for 10 minutes. The supernatant was transferred to a 96-well plate and proteasome activity was measured as described above for tumor cell lysates.
(§3) Proteasome subunit activity (Chymotrypsin-like, Trypsin-like, Caspase-like, CT-L, T-L, C-L, respectively) were monitored over the course of 24 hrs following […] administration of representative compounds of Formula I. NOD/SCID mice were treated with compounds of Formula I (2 mg/kg by iv administration) or vehicle control and carfilzomib for up to 24 hours, as described above. Table 9 summarizes the data on pharmacodynamic activity of representative compounds of Formula I following a dose of 2 mg/kg intravenous (i.v) administration to mice. Data are presented as mean residual activity (SEM) relative to vehicle treated controls.

[2] = molecular target: T2, proteasome Chymotrypsin-like (CT-L) activity (Mus musculus, UniProt O09061+O55234); assay: Pharmacodynamic proteasome activity in murine red blood cells, CT-L; settings: iv, mice, 2 mg/kg i.v.
T2 construct: RBCs were lysed with assay lysis buffer and incubated on ice for 30 minutes; from tissue; host or cells: red blood cells of NOD/SCID mice
Description: as §1, §2, §3

[3] = molecular target: T3, proteasome Trypsin-like (T-L) activity (Mus musculus, UniProt P70195+Q9R1P1); assay: Pharmacodynamic proteasome activity in murine red blood cells, T-L; settings: iv, mice, 2 mg/kg i.v., time 0, read-out: Trypsin-like (T-L) mean residual activity relative to vehicle treated controls
T3 construct: RBCs were lysed with assay lysis buffer and incubated on ice for 30 minutes; from tissue; host or cells: red blood cells of NOD/SCID mice
Description: as §1, §2, §3

SMILES: CC(C)C[C@H](NC(=O)[C@H](CCc1ccccc1)NC(=O)CN1CCOCC1)C(=O)N[C@@H](Cc1ccccc1)C(=O)N[C@@H](CC(C)C)C(=O)[C@@]1(C)CO1 [Carfilzomib, carfilzomib, reference compound]
- remaining activity at 2 mg/kg [1]: 100%
- remaining activity at 2 mg/kg ([2]; 30 min, read-out: Chymotrypsin-like (CT-L) mean residual activity relative to vehicle treated controls): 48%
- remaining activity at 2 mg/kg ([2]; 24 hrs, read-out: Chymotrypsin-like (CT-L) mean residual activity relative to vehicle treated controls): 46%
- remaining activity at 2 mg/kg ([2]; time 0, read-out: Chymotrypsin-like (CT-L) mean residual activity relative to vehicle treated controls): 100%
- remaining activity at 2 mg/kg [3]: 100%

Reference: US20150218212A1, “FLUORINATED EPOXYKETONE-BASED TETRAPEPTIDE COMPOUNDS AND USES THEREOF AS PROTEASOME INHIBITORS” (FLUORINOV PHARMA INC., priority 2012, published 2015)
